# Where a name gives a salt, the structure may show the parent alone.
# Legend:
# [1] = Microemulsion formation / appearance of formulations in HFA227; format: physicochemical; conditions: 10% surfactant, 20% EtOH, HFA 227, 5% w/w water
# Method: (§1) Samples were prepared in clear glass formulation vials. The surfactants were added first followed by water then the other components of the formulation were added and the weight of bottle recorded after each addition. Final compositions were calculated as percentage w/w. Valves were crimped onto plastic-coated bottles or anodized aluminium cans before being placed in a sonicator for 5 minutes to allow as much dissolution of surfactants in the water as possible. The propellant was filled through the valve and the final weight of the packaged formulation recorded. In the case of the emulsions the packaged formulations were either shaken vigorously by hand or gently warmed in the hand (sonication where necessary) to induce an emulsion. For the microemulsion formulations the same method was used except the ethanol was added just before crimping and no sonication was required after HFA addition as a clear formulation was obtained immediately.
# The following table 3 lists the various microemulsion formulations prepared with Synperonic L64, AOT, and the fluorinated surfactant Zonyl FSN. L64 and Zonyl FSN produced clear systems.
# [2] = Emulsion formation of pMDI formulations in HFA propellant (visual); format: physicochemical; conditions: 5% w/w water, 25 μg/50 μl drug; for Comment (emulsion formation): HFA227
# Method: as §1, with “emulsion.” for “emulsion. For the microemulsion formulations the same method was used except the ethanol was added just before crimping and no sonication was required after HFA addition as a clear formulation was obtained immediately.”
# The surfactants used for these formulations are a Span85/AOT blend and the Synperonics L64.
"Comment (emulsion formation) ([2]; 0.1% Span85, 0.01% AOT)","Comment (emulsion formation) ([2]; 0.1% Span85, 0.05% AOT)","Emulsion formation, HFA 134a ([2]; 0.1% Synperonic L64)","Emulsion formation, HFA 134a ([2]; 0.5% Synperonic L64)","Emulsion formation, HFA 227 ([2]; 0.5% Synperonic L64)","Emulsion formation, HFA 134a ([2]; 1% Synperonic L64)","Emulsion formation, HFA 227 ([2]; 1% Synperonic L64)","Emulsion formation, HFA 227 ([2]; 0.1% Synperonic L64)","Comment (emulsion formation) ([2]; 0.4% Span85, 0.05% AOT)",Compound,Comment (microemulsion formulation appearance) [1]
–,–,–,–,–,–,–,–,–,sodium dioctylsulpho-succinate [AOT],"Slight cloud, one apparent phase"
Emulsion,Emulsion,Emulsion,Emulsion,Immediate emulsion,Emulsion,Immediate emulsion,–,–,"CCC(=O)Oc1ccc2c(c1)CC[C@@H]1[C@@H]2CC[C@]2(C)[C@@H](OC(=O)CC)CC[C@@H]12 [Oestradiol Dipropionate, oestradiol dipropionate]",–
–,Emulsion,Emulsion,Emulsion,Emulsion,Emulsion,Emulsion,Emulsion,Emulsion,"CN1CCc2cccc3c2[C@H]1Cc1ccc(O)c(O)c1-3 [Apomorphine Hydrochloride, apomorphine hydrochloride]",–
